Data as given in patent US11485728B2, “Small molecules for the treatment of autoimmune diseases and cancer” (Athos Therapeutics, Inc., priority 2020, dated 2022).
pIC50: −log10 of the molar value.

Assays:
[1] = Formulation visual stability (DMA/PG/PEG 300/water); assay type: physicochemical; conditions: 25° C., 10-11 mg/mL in DMA/PG/PEG 300/Water
Experimental: All formulations were conducted with FDA approved excipients and with high purity material such as USP grade quality. Formulation stability of test articles are performed using HPLC purity method described within analytical section. This formula may be used for oral administration of the compounds described herein; […]. Since these compounds have high solubility in lower pH as described in the solubility study section, the intervenous delivery is performed with 100% phosphate buffer solution of pH 6.5 allowing up to 7 mg/mL concentration. The formulated test articles can be store at 4° C. Prior to dosing, it should be warmed and vortexed for about 1 min to make a homogenous solution. If needed, filter through 0.2 μM syringe filter to maintain clean and sterile.

PAMPA permeability = conditions: PAMPA, 5 hours at RT
From the text: Parallel artificial membrane permeability (PAMPA) assay is a non-cell based assay designed to predict in vivo biological membrane permeability of drugs in early stage of drug discovery. […] The Corning Gentest Pre-coated PAMPA plate system was designed by 96-well insert system with a 0.45 μm PVDF (polyvinylidene fluoride) filter plate which has been pre-coated with structured tri-layers of phospholipids (lipid/oil/lipid) and a matched receiver microplate.
Donor solutions of test compounds (300 μL, 20 μM in PBS/MeOH 90:10) were added to each well of the donor plate. 200 μL of PBS/MeOH 90:10 was added to each well of the acceptor plate. The acceptor plate was coupled with the donor plate and incubated for 5 hours at room temperature (RT) without agitation. In each plate, compounds were tested in triplicate. At the end of the incubation, drug concentration in the initial donor solution, acceptor and the donor wells were determined using LC/MS/MS. A five (5) points standard curve from 0.1 to 1000 nM for each test compound were prepared. Analyte samples were diluted to within standard curve concentration with ACN/H2O 50:50 prior analysis.
All samples were analyzed by electrospray ionization (ESI) liquid chromatograph/mass spectrometry (LC/MS) system utilizing Sciex 5500 quadropule ion trap (Qtrap) mass spectrometry with Shidmazu Nexera X2 UHPLC. The LC-MS/MS instrument monitored each of the test compound in the study based of their respective mass-to-charge (m/z) transitions and MS parameters. Chromatographic separation was achieved on Phenomenex Luna C18 column (50×2.0 mm, 3 μm particle size) by using a gradient elution: mobile phase A contains 0.1% formic acid in water and mobile phase B contains 0.1% formic acid in acetonitrile; A/B (99:1) from 0 to 1 minutes; to A/B (1:99) from 1 to 4 minutes; A/B (1:99) from 4 to 8 minutes; to A/B (99:1) from 8 to 8.20 minutes; A/B (99:1) from 8.2 to 9 minutes. The flow rate was 0.4 mL/min and the column temperature was maintained at 35° C. and autosampler temperature at 4° C. For detection, the electrospray ionization operated in the positive mode using multiple reaction monitoring (MRM).
Data acquisition, and peak integrations were obtained by Analyst® Version 1.7.1 (Sciex) operating with Windows® (Microsoft). The standard curve regressions and sample concentrations were generated and calculated by Analyst®. Concentrations in the sample solutions were determined based on the measured peak area ratios from the response of the analyte to the internal standard with reference to the standard calibration curve. All sample calculations were calculated using a linear regression with 1/x^2 weighting (where x is the concentration of given calibration standard level).
Permeability of the test compounds was calculated using the following formula:
The permeability of compounds was evaluated with the parallel artificial membrane permeation assay (PAMPA) as an in vivo model of passive diffusion across a porous filter coated with a lipid/oil/lipid tri-layer artificial membrane. […] Donor solutions of test compounds (300 μL, 20 μM in PBS/MeOH 90:10) were added to each well of the donor plate. 200 μL of PBS/MeOH 90:10 was added to each well of the acceptor plate. The acceptor plate was coupled with the donor plate and incubated for 5 hours at room temperature (RT) without agitation. In each plate, compounds were tested in triplicate. At the end of the incubation, drug concentration in the initial donor solution, acceptor and the donor wells were determined using LC/MS/MS. Permeability of test compounds was calculated based on the formula described in the General Procedures above. The PAMPA permeability classification criteria are categorized into three (3) classes with a high (Pe≥1.5×10−6 cm/s), intermediate (5.5×10−8<Pe<1.5×10−6 cm/s), and low (Pe<5.5×10−8 cm/s) permeability.

[2] = test system: HT-29 colorectal cancer cells; assay: HT-29 cell viability (Real-Time-Glo); assay type: cell-based; conditions: Homo sapiens, HT-29; 72 hr; read-out: IC50, Cell line: HT-29
Experimental: Equal volume of 2× RealTime-Glo™ reagent (2 μl of MT Cell Viability Substrate 1,000×, and 2 μl of NanoLuc® Enzyme 1,000×, per 1 ml of media, Promega) was added to each well and cells were incubated at 37° C. Luminescence was evaluated at 72 h.
(§1) To determine the plating density for cell viability assays, for each cell line, cells were counted and diluted to final densities of 2.5, 5, 10 and 20 thousand per 100 μl of their respective growth media per well in 96 well plates. A Promega Real-Time-Glo cell viability kit was used to determine the optimal concentration for cell plating so that each cell line would be within the linear part of its growth curve after 72 hrs in culture. […] Test compounds were then added at different concentrations for the creation of six-point curve and cell density was determined using the Promega Real-Time-Glo cell viability kit after 24, 48, and 72 hrs in culture.
Specifically, the Promega Real-Time-Glo cell viability kit was used to determine the optimal concentration for cell plating so that each cell line would be within the linear part of its growth curve after 72 hrs in culture. […] Test compounds are then added at different concentrations for the creation of six-point curve and cell density is determined using the Promega Real-Time-Glo cell viability kit after 24, 48, and 72 hrs in culture. […]

[3] = In-vitro half-life in rat liver microsomes; assay type: in vitro ADME; conditions: Rat liver microsomes 0.5 mg/mL; 1 μg/mL drug; NRS; read-out: Metabolic Half-life
Experimental: (§2) In each of the species (human, rat, mouse) of liver matrix to be tested, a working concentration of 2 μg/mL was prepared of each test article from the 0.5 mg/mL DMSO stock solution by adding 3 μL of 0.5 mg/mL test article stock solution to 747 μL of the 1 mg/mL liver matrix. Incubation was performed at 37±2° C. with gentle, continuous mixing in shaking water bath in 2.0 mL-well capacity 96-Deepwell plates (96-DWP). Samples were retrieved in duplicate at the following time points: 0, 5, 10, 15, 30 and 60 minutes. The final mixture contained 1 μg/mL of drug and 0.5 mg/mL of liver matrix. First, 50 μL of test articles in liver matrix was added to the 96-DWP and pre-warmed the mixture in the 96-DWP for 2 minutes in the 37° C. water bath. The enzymatic reaction was started by the addition of 50 μL of the corresponding 2× NADPH regenerating system (NRS) cofactor solution to all sample wells and stopped by the addition of 300 μL of stop solution (acetonitrile containing 10 ng/mL Tolbutamide as an internal standard (I.Std.). The samples were agitated for 10 minutes and then centrifuged for 20 minutes at 4500 rpm. 25 μL of supernatant was diluted with 475 μL acetonitrile containing I. Std. into a new 96-DWPs for LC-MS/MS analysis.
(§3) Half-life calculations were generated and calculated by Graphpad Prism® software. The half-life of test compound was calculated based on the first-order reaction kinetics. The data was transformed to linear regression (y=log(y) where “y” axis represents the % compound remaining at any given time with respect to time 0 minutes; “x” axis represents time in minutes) in order to calculate the half-life.
(§4) A comparison of metabolic stability in time-course incubation experiments in varying species of liver can provide information of pharmacokinetic properties of drugs attributable to species-related differences in hepatic metabolism. The results of these experiments often assist in further applications such as assessing in vitro metabolite profiling and choosing relevant species for toxicology studies based on similarities relative to the metabolic stability to the human profile. For these experiments, the test compound was tested in parallel with a positive control, Dasatinab, in an enzymatic reaction solution of each species (human and rat) of liver microsomes containing a NADPH regenerating system (NRS). The final mixture contained 1 μg/mL of drug and 0.5 mg/mL of liver matrix. Incubations were performed at 37±2° C. with gentle, continuous mixing in shaking water bath in 96-Deep well plates. The stability of the test compound is monitored using fast, specific and sensitive LC/MS/MS analysis.

[4] = In-vitro half-life in mouse liver microsomes; assay type: in vitro ADME; conditions: Mouse liver microsomes 0.5 mg/mL; 1 μg/mL drug; NRS; read-out: Metabolic Half-life
Experimental: as §2, §3, §4

HCT-116 = HCT-116 cell viability (Real-Time-Glo); assay type: cell-based; conditions: Homo sapiens, 72 hr, read-out: IC50, Cell line: HCT-116
Experimental: as §1

[5] = In-vitro half-life in human liver microsomes; assay type: in vitro ADME; conditions: Human liver microsomes 0.5 mg/mL; 1 μg/mL drug; NRS; read-out: Metabolic Half-life
Experimental: as §2, §3, §4

[6] = cited from earlier work
mouse = conditions: oral; cited from earlier work

COc1cc2c(NC3CCN(C4CCCCC4)CC3)nc(N3CCCN(C(C)C)CC3)nc2cc1OCCCN1CCCCC1 [Compound 402, reference compound]
Appearance ([1]; 30 min): clear | Appearance ([1]; 1 h): clear | Appearance ([1]; 5 h): clear | Appearance ([1]; 24 h): clear | Appearance ([1]; 7 d): clear | Papp at 5 h, 20 μM (PAMPA permeability; PAMPA permeability Classification, 20 μM donor): < 0.055 ×10⁻⁶ cm/s | Papp at 5 h, 20 μM (PAMPA permeability; Permeability, Pe, 20 μM donor in PBS/MeOH 90:10): 0.00971 ×10⁻⁶ cm/s | pIC50 [2]: 4.70 to 5.00 | half-life at 1 μg/mL [3]: > 1 h | half-life at 1 μg/mL [4]: > 1 h | pIC50 (HCT-116): 5.00 to 5.30 | half-life at 1 μg/mL [5]: > 1 h

O=C(O)Cc1ccccc1Nc1c(Cl)cccc1Cl [Diclofenac]
permeability of positive control (published) [6]: high permeability

CC(O)CO (centres unmarked) [PG, propylene glycol]
LD50 (mouse): 22000 mg/kg
